Measured values: patent publication US20240382475A1, “Quinazoline Derivative, Or Preparation Method Therefor And Use Thereof” (Zhejiang Hisun Pharmaceutical Co., Ltd., priority 2021, published 2024)

Experiments:
[1] = tested on: human lung cancer NCI-H2122 subcutaneous xenotransplanted tumor; assay: Pharmacodynamic evaluation in nude mouse subcutaneous xenotransplanted model of human lung cancer NCI-H2122; type: in vivo, Balb/c nude mouse; conditions: 30 mg/kg each agent
Protocol: The anti-tumor effect and safety of compound 11 of the present invention were evaluated in a Balb/c nude mouse animal model of subcutaneous xenotransplanted NCI-H2122.
BALB/c; nude mice, female, 6-7 weeks old (the age of mice when tumor cells were inoculated), purchased from Jiangsu Jicui Yaokang Biotechnology Co., Ltd.
The solvent control group was given DMSO:castor oil:5% glucose injection=20:10:70 (v/v/v).
AMG-510: an appropriate amount of AMG-510 was weighed, and an appropriate amount of DMSO:castor oil:5% glucose injection=20:10:70 (v/v/v) was added. After the above mixture was fully dissolved, an appropriate amount of 1 M hydrochloric acid was added, vortexed and mixed to prepare a solution with a concentration of 3 mg/mL.
Compound 11: an appropriate amount of compound 11 was weighed, and an appropriate amount of DMSO:castor oil:5% glucose injection=20:10:70 (v/v/v) was added. After the above mixture was fully dissolved, an appropriate amount of 1 M hydrochloric acid was added, vortexed and mixed to prepare a solution with a concentration of 3 mg/mL.
H2122 cells were cultured in 1640 culture medium containing 10% fetal bovine serum and 1% penicillin-streptomycin-amphotericin B solution. H2122 cells in the exponential growth phase were collected and resuspended in matrigel solution (matrigel:PBS=1:1 (V/V)) to a suitable concentration for subcutaneous tumor inoculation in nude mice.
Female Balb/c nude mice were subcutaneously inoculated with about 3.0×10^6H2122 cells on the right sides of their backs. When the average volume of the tumors reaches about 150-200 mm^3, the mice were randomly divided according to the tumor sizes with 6 mice in each group.
• Group 1 (G1), solvent control group; • Group 2 (G2), AMG-510 was given by intragastric administration at a dose of 30 mg/kg; • Group 3 (G3), Example 11 was given by intragastric administration at a dose of 30 mg/kg; • Group 4 (G4), AMG-510 and Example 11 were administered in combination, and the dosages were respectively: AMG-510, 30 mg/kg (QD); Example 11, 30 mg/kg (QD).
After tumor inoculation, routine monitoring included the effects of tumor growth and treatment on the normal behaviors of the animals, specifically the mobility, feeding and drinking, weight gain or loss, eyes, coat and other abnormalities of the experimental animals.
Calculation formulae for a relative tumor volume (RTV), a relative tumor proliferation rate (T/C) and a tumor inhibition percentage (IR) were as follows: • (1) TV (tumor volume)=½×a×b^2, wherein a and b represent the length and width of the tumor respectively; • (2) RTV (relative tumor volume)=Vt/Vo, wherein Vo is the tumor volume measured at the time of administration when grouping (i.e. do), and Vt is the tumor volume at each measurement; • (3) relative tumor proliferation rate T/C (%)=TRTV/CRTV×100%, wherein TRTV is the RTV of the treatment group and CRTV is the RTV of the control group; • (4) Tumor growth inhibition rate TGI(%)=(1−T/C)×100%; wherein, T and C are the relative tumor volumes of the treatment group and the control group at a specific time point. • (5) IR (%)=(1−TWt/TWc)×100%, wherein, TWt is the tumor weight of the treatment group and TWc is the tumor weight of the control group. The anti-tumor evaluation criteria are (cytotoxic drugs): T/C(%)>40% is invalid; T/C(%)≤40%, and after statistical processing, P<0.05 is effective.

OCI-AML5 cells = assay: Inhibition of OCI-AML5 cell proliferation (CellTiter-Glo); type: cell-based; conditions: Homo sapiens, OCI-AML-5; OCI-AML5 cells (SOS1 N233Y mutation), 120 hours
Protocol: The following method was used to determine the influence of the compounds of the present invention on OCI-AML5 cells proliferation. OCI-AML5 cells (containing SOS1 N233Y mutation) were purchased from Nanjing Kebai Biotechnology Co., Ltd. and cultured in MEMα medium containing 10% fetal bovine serum, 100 U penicillin, and 100 μg/mL streptomycin. The activities of the cells were determined by CellTiter-Glo® Luminescent Cell Viability Assay Kit (Promega, Art. No. G7573).
The experimental method was operated according to the steps in the kit instruction, which were briefly described as follows: the test compounds were first dissolved in DMSO to prepare storage solutions of 10 mM, and then diluted with culture mediums to prepare test samples. The final concentrations of the compounds were 10000 nM to 0.15 nM. Cells in logarithmic phase were inoculated in a 96-well cell culture plate with 1,000 cells per well, after cultured overnight in 5% CO2 incubator at 37° C., the test compounds were added to the incubator to continue the culture for 120 hours. After the culture was completed, 50 μL of CellTiter-Glo detection solution was added to each well, shaken for 5 minutes and then stood for 10 minutes. Then, a Luminescence mode was used to read the luminescence values of each well of the samples on a microplate reader.

KRAS-G12C/SOS1 = target: T1, KRAS-G12C/SOS1 (Homo sapiens, UniProt Q07889); assay: Blocking the binding of KRAS G12C protein to SOS1 (Cisbio KRAS-G12C/SOS1 binding assay kit, TR-FRET); conditions: Tag1-SOS1 and Tag2-KRAS-G12C, TR-FRET 665/620; read-out: IC50 (nM) Inhibition of KRAS-G12C/SOS1 binding
T1 construct: purchased Cisbio 63ADK000CB16PEG
T1 sequence (Q07889 1-1333): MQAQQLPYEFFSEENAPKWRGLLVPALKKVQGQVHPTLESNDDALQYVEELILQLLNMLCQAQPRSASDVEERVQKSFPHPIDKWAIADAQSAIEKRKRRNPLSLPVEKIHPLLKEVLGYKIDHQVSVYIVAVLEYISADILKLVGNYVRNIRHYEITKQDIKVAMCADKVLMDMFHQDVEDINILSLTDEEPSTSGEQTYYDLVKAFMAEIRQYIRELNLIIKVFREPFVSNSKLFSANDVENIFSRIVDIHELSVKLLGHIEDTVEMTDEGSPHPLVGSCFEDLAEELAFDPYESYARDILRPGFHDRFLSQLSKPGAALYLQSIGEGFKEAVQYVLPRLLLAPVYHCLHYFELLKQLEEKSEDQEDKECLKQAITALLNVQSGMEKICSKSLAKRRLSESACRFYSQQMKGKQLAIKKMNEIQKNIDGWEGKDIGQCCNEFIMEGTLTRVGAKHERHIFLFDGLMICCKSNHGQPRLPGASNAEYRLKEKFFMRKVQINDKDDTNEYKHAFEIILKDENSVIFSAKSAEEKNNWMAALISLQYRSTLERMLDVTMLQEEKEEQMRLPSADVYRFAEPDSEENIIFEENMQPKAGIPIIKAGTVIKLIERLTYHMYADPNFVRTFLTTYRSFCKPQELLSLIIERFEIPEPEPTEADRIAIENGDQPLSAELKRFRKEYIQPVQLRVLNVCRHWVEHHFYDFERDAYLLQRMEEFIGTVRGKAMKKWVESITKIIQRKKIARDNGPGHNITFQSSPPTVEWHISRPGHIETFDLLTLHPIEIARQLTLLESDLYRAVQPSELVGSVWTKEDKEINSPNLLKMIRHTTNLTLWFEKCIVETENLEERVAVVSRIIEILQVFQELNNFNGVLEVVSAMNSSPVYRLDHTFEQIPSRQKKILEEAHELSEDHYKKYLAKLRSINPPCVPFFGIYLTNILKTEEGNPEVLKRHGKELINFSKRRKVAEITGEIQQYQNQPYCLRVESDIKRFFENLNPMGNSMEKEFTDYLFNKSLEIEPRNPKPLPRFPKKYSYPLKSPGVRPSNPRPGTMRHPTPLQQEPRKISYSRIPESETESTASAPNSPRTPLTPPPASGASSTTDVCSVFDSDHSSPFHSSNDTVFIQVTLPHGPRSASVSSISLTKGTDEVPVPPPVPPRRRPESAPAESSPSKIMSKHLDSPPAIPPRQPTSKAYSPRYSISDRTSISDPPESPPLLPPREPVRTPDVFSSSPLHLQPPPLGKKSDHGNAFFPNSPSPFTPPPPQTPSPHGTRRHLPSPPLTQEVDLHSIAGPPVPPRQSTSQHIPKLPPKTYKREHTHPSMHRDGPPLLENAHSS
Description: The following method was used to determine the abilities of compounds of the invention to block the interaction of SOS1 with the KRAS G12C protein in vitro. KRAS-G12C/SOS1 BINDING ASSAY KITS (Art. No. 63ADK000CB16PEG) from Cisbio was used in this method. Please refer to the kit instruction for detailed experimental operations.
The experimental process can be briefly described as follows: diluent buffer (Art. No. 62DLBDDF) was used to prepare a working solution with a concentration of 5× for Tag1-SOS1 and Tag2-KRAS-G12C protein. The test compounds were dissolved in DMSO to prepare storage solutions of 10 mM, and then the solutions were diluted with dilution buffer for later use. First, 2 μL of the test compound (the final concentrations of the reaction system were 10000 nM-0.1 nM) was added to the well, then 4 μL of Tag1-SOS1 5× working solution and 4 μL of Tag2-KRAS-G12C 5× working solution were added, and the above mixture was centrifuged, mixed, and stood for 15 minutes; then 10 μL of premixed anti-Tag1-Tb^3+ and anti-Tag2-XL665 were added, and the mixture was incubated at room temperature for 2 hours; finally, a microplate reader was used in […] mode to measure the fluorescence intensity of each well emitting wavelengths of 620 nm and […] under the excitation wavelength of 304 nm, and the fluorescence intensity ratio 665/620 in each well was calculated. Compared with the fluorescence intensity ratio of a control group (0.1% DMSO), the percentage inhibition rates of the test compounds at each concentration were calculated, and the IC50 values of the compounds were obtained by performing nonlinear regression analysis with logarithmic values of the compound concentration-inhibition rate by GraphPad Prism 5 software, which was shown in Table 1.

## C=CC(=O)N1CCN(c2nc(=O)n(-c3c(C)ccnc3C(C)C)c3nc(-c4c(O)cccc4F)c(F)cc23)[C@@H](C)C1 [AMG-510, reference compound]
[1]; 16 days after administration
  Relative tumor volume (x ± S): 2.90 ± 0.26
  TGI %: 43.0%
[1]; Day 0 after administration, intragastric
  Tumor volume (x ± S): 199 ± 21 mm^3
[1]; Day 3 after administration, intragastric
  Tumor volume (x ± S): 263 ± 17 mm^3
[1]; Day 7 after administration, intragastric
  Tumor volume (x ± S): 343 ± 29 mm^3
[1]; Day 10 after administration, intragastric
  Tumor volume (x ± S): 406 ± 38 mm^3
[1]; Day 14 after administration, intragastric
  Tumor volume (x ± S): 538 ± 47 mm^3
[1]; Day 16 after administration, intragastric
  Tumor volume (x ± S): 563 ± 58 mm^3
[1]; Table 11, 16 days after administration, in mm³
  Tumor volume (x ± S): 563 ± 58
[1]; end of the experiment
  Inhibition rate of tumor weight (%): 44.3%
  Tumor weight (g) (x ± S): 0.4203 ± 0.0447 g

## COc1cc2nc(C)nc(N[C@H](C)c3cccc(C#N)c3C)c2cc1N1CCN2C(=O)CCC2C1 (stereo partly drawn) [Compound 3, 3-((1R)-1-((7-methoxy-2-methyl-6-(6-oxohexahydropyrrolo[1,2-a]pyrazin-2(1H)-yl)quinazolin-4-yl)amino)ethyl)-2-methylbenzonitrile]
OCI-AML5 cells
  IC50: 42.9 nM

## COc1cc2nc(C)nc(N[C@H](C)c3cccc(C#N)c3C)c2cc1N1CCC(N2CCOCC2)CC1 [Compound 6, (R)-3-(1-((7-methoxy-2-methyl-6-(4-morpholinopiperidin-1-yl)quinazolin-4-yl)amino)ethyl)-2-methylbenzonitrile]
KRAS-G12C/SOS1
  IC50: 1.1 nM
OCI-AML5 cells
  IC50: 5.5 nM

## COc1cc2nc(C)nc(N[C@H](C)c3cccc(C#N)c3C)c2cc1N1CC2COCC2C1 (stereo partly drawn) [Compound 9, 3-((1R)-1-((7-methoxy-2-methyl-6-(tetrahydro-1H-furo[3,4-c]pyrrol-5(3H)-yl)quinazolin-4-yl)amino)ethyl)-2-methylbenzonitrile]
KRAS-G12C/SOS1
  IC50: 53.7 nM
OCI-AML5 cells
  IC50: 25 nM

## COc1cc2nc(C)nc(N[C@H](C)c3cccc(C#N)c3C)c2cc1N1CCC2(CC1)CN(S(C)(=O)=O)C2 [Compound 16, (R)-3-(1-((7-methoxy-2-methyl-6-(2-(methylsulfonyl)-2,7-diazaspiro[3.5]nonan-7-yl)quinazolin-4-yl)amino)ethyl)-2-methylbenzonitrile]
KRAS-G12C/SOS1
  IC50: 54.3 nM

## COc1cc2nc(C)nc(N[C@H](C)c3cccc(C#N)c3C)c2cc1N1CCC(N2CCCC2=O)CC1 [Compound 21, (R)-3-(1-((7-methoxy-2-methyl-6-(4-(2-oxopyrrolidin-1-yl)piperidin-1-yl)quinazolin-4-yl)amino)ethyl)-2-methylbenzonitrile]
KRAS-G12C/SOS1
  IC50: 63.2 nM

## COc1cc2nc(C)nc(N[C@H](C)c3cccc(C#N)c3C)c2cc1N1CCC(N2CCN(S(C)(=O)=O)CC2)CC1 [Compound 23, (R)-3-(1-((7-methoxy-2-methyl-6-(4-(4-(methylsulfonyl)piperazin-1-yl)piperidin-1-yl)quinazolin-4-yl)amino)ethyl)-2-methylbenzonitrile]
OCI-AML5 cells
  IC50: 41.1 nM
